Counter-ions that a name gives are not always drawn.
Test system: rhythmic bladder contraction, male SD rats
Experiment: rhythmic bladder contraction model of a rat (frequent urination model)
Type: in vivo
Conditions: urethane-anesthetized male SD rats, intravenous, 0 to 10 minutes after the administration
Method: Male SD rats (7 to 10 weeks old, Japan SLC) were anesthetized with urethane (1 to 1.2 g/kg, intraperitoneal administration) and their lower abdomen were opened along the midline. After performing a small dissection at the apex of the bladder, a cannula (Hibiki, size 5) attached with a balloon of about 1 ml volume was inserted into the bladder. A cannula for drug administration (PE50, Becton Dickinson) was inserted into the femoral vein. The cannula for measuring intravesical pressure was connected to a pressure transducer attached with a three-way cock and water was injected into the balloon from a free opening of the three-way cock to cause rhythmic bladder contraction. The intravesical pressure at that time was recorded by a thermal recorder (Recti-Horiz8K, NEC Sanei) via an amplifier (AP-601G, Nihon Kohden). The bladder contractile frequency and force were measured every 10 minutes before the administration of a test compound and for 0 to 10 and 10 to 20 minutes after the administration. Statistical analysis was performed using randomized block analysis of variance and Dunnett's multiple comparison with respect to the measurement values obtained before the administration.

Compound | effect on bladder contractile force (3.2 mg/kg) | bladder contractile frequency, % of the value obtained before the administration (3.2 mg/kg, p<0.01) [%] | effect on bladder contractile force (1 mg/kg) | bladder contractile frequency, % of the value obtained before the administration (1 mg/kg, p<0.05) [%]
CC(C)c1ccc(C(=O)NC(=N)N)cc1S(C)(=O)=O.CS(=O)(=O)O [test compound 1, 4-isopropyl-3-methylsulfonylbenzoyl guanidine methanesulfonate] | without significantly affecting | 25 | – | –
(2,3-dihydro-9-methanesulfonyl-1-benzoxepin-4-carbonyl)guanidine dihydrochloride [test compound 3] | – | – | without significantly affecting | 41
CN(C)CCNC(=O)c1cc(C(=O)N=C(N)N)cc(-c2cc(Cl)sc2Cl)c1 [test compound 2, [5-(2,5-dichlorothiophene-3-yl)-3-[(2-dimethylaminoethyl)carbamoyl]benzoyl]guanidine dihydrochloride] | – | – | without significantly affecting | 22

From patent publication US20050261164A1, “Remedy for urinary frequency and urinary incontinence” (FUJISAWA PHARMACEUTICAL CO., LTD., priority 2002, published 2005)
